According to publication PMC12670405, “Second-Generation AURKA-Targeting PROTACs: Structural Optimization toward in Vivo Degradation in Neuroblastoma” (Journal of Medicinal Chemistry, 2025):
Where two headings read alike, the source gives them in different places.

Assays:
NGP = assay: IncuCyte live-cell imaging, antiproliferative effect; format: cell-based; conditions: Homo sapiens, 72 h
Text: (§1) Human neuroblastoma cell lines NGP, IMR-32, SJNB-8, SK-N-BE(2)-C, SJNB-1, SK-N-SH and SK-N-AS, as well as benign immortalized cell lines RPE and HEK293T were either bought commercially or obtained through research laboratories. […] Screening for mycoplasma contamination occurred routinely on the cells. Human neuroblastoma cell lines SH-SY5Y_shABCB1 & SH-SY5Y_shNTC were generated by transduction with pLKO.1-ABCB1_TRCN0000059683 shRNA (Sigma MISSION SHCLND) or pLKO.1-puro NT shRNA (Sigma MISSION SHC002) vectors respectively (Supplementary Table S6), packaged using Lenti-X293T (Clontech). Transduced cells were selected with 2 μg/mL puromycin. These cells were cultured in DMEM 4.5 g/L D-Glucose, L-Glutamine and 110 mg/L Sodium Pyruvate (Gibco, #11995065) supplemented with 10% fetal bovine serum, 1× Antibiotic-Antimycotic solution (Sigma-Aldrich, #A5955) and 1× MEM nonessential amino acids (Sigma-Aldrich, #M7145). Incubation of all cells occurred at 37 °C and 5% CO2.
(§2) Neuroblastoma cells were seeded in 384-well plates at different densities ranging from 1200 to 5000 cells/well and allowed to adhere overnight. RPE and HEK293T were seeded at 200 and 600 cells/well, respectively. Compound treatment was performed using the D300e Digital Dispenser (Tecan) in duplicate or triplicate and cell confluency was monitored over time using the IncuCyte Live-cell imaging system (Sartorius). […] Mean normalized confluences were calculated from 3 individual experiments.
(§3) All dose–response curves were computed on GraphPad Prism using the Variable Slope (four parameters) equation. Absolute half-maximal degradation (DC50), growth inhibitory (GI50) and enzymatic inhibitory (IC50) concentrations, as well as inhibition constants (Ki) were derived from dose–response curves via interpolation. Statistical tests were performed on GraphPad Prism and detailed in the figure legends. Unless otherwise stated, “n” in the figure legends indicates the number of independent experiments conducted at different times.

[1] = Metabolic stability in mouse liver microsomes (MLM); format: in vitro ADME, CD-1 mouse; conditions: CD-1
Method: (§4) Plasma and metabolic stability tests were performed by Eurofins Discovery. For the plasma stability assay, test compounds were incubated in CD-1 mouse plasma for 0, 0.5, 1, 1.5, and 2 h at 37 °C at a concentration of 1 μM. For the metabolic stability assay, test compounds were incubated at 37 °C in either (1) CD-1 mouse liver microsomes (MLM) (0.1 mg/mL) at a concentration of 0.1 μM for 0, 15, 30, 45, and 60 min or (2) CD-1 mouse hepatocytes (MH) (0.7 million viable cells/mL) at a concentration of 1 μM for 0, 0.5, 1, 1.5, and 2 h. At the respective time points, acetonitrile was added to the incubation mixture followed by centrifugation. Samples were analyzed by HPLC-MS/MS and peak areas were recorded for each analyte. Compound stability, expressed as the percentage of parent compound remaining, was calculated by comparing the peak area of the compound at each time point relative to that of the 0h time point. Percentage compound remaining is plotted as a function of time as a logarithmic curve. Half-life (t 1/2) is estimated from the slope of the initial linear range of the curve, assuming first-order kinetics. […] Both plasma and metabolic assay experiments were performed once with 2 replicate samples each.

[2] = Metabolic stability in mouse hepatocytes (MH); format: in vitro ADME, CD-1 mouse; conditions: CD-1
Method: as §4

CRBN = target: T1, CRBN (Homo sapiens, UniProt Q96SW2); assay: CRBN binding assay (E3scan, Eurofins Discovery)
T1 construct: purchased Eurofins Discovery
Method: (§5) AURKA, AURKB and CRBN binding assays were performed by Eurofins Discovery using the KdELECT Kinase Assay Panel (AURKA and AURKB), or the E3scan Ligand Binding Assay Technology (CRBN). More information can be found on the Eurofins Discovery Web site.
(§6) Graphs were generated using GraphPad Prism Software (version 10.1.2) or RStudio (R-4.3.2). All dose–response curves were computed on GraphPad Prism using the Variable Slope (four parameters) equation. Absolute half-maximal degradation (DC50), growth inhibitory (GI50) and enzymatic inhibitory (IC50) concentrations, as well as inhibition constants (Ki) were derived from dose–response curves via interpolation. Statistical tests were performed on GraphPad Prism and detailed in the figure legends. Unless otherwise stated, “n” in the figure legends indicates the number of independent experiments conducted at different times.

Plasma stability assay = format: in vitro ADME, CD-1 mouse; conditions: for half-life at 1 μM: read-out: plasma t1/2
Method: as §4

AURKA [3] = target: T2, AURKA (Homo sapiens, UniProt O14965); assay: AURKA degradation, Simple Western; format: cell-based; set-up: Representative Western blot showing levels of endogenous proteins MDR1, MYCN, AURKA, and CRBN in untreated cell lines; endogenous in cells; host or cells: NGP, IMR-32, SJNB-8, SK-N-BE(2)-C, SK-N-SH, SK-N-AS, SJNB-1, RPE, HEK293T; conditions: for pDC50: AURKA degradation; for DC50: read-out: AURKA DC50; for AURKA degradation (in words): IMR-32, 24h treatment;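 on AURKA Degradation 24h @1000nM: measured in NGP neuroblastoma cells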;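 on AURKA Degradation 24h @100nM: measured in NGP neuroblastoma cells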
T2 sequence (O14965 1-403): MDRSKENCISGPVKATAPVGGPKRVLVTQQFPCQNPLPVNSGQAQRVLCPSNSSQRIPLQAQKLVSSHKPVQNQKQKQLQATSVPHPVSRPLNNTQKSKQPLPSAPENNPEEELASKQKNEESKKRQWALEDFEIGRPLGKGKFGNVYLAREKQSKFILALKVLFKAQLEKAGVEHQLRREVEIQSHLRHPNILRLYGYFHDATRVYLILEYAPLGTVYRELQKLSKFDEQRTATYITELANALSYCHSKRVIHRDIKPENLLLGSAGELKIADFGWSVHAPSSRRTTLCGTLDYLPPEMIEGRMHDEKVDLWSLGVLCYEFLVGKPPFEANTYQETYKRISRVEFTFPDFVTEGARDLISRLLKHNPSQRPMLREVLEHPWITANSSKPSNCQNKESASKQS
Method: (§7) Cells were seeded in T-25 flasks at different densities ranging from 1 to 2 million cells per flask and allowed to adhere for 1–2 days. In experiments involving compound treatment, this was done by medium replacement containing the compound(s) of interest in their corresponding concentrations. In competition binding experiments, cells were first pretreated with an excess of MK-5108, thalidomide or MG-132 for 1 h by shaking gently at room temperature prior to addition of SK4454 or SK5527. All samples were normalized to contain the same percentage of DMSO as the negative DMSO controls. Cells were harvested on ice at their respective time points by scraping, washed with ice-cold PBS to collect remaining cells, and centrifuged (2500 rpm, 4 °C). A second washing and centrifugation step was performed prior to collection of the final cell pellets which were then snap-frozen in liquid nitrogen and kept frozen at −80 °C until further processing. Lysis of cell pellets occurred in cold RIPA buffer (0.5% w/v Sodium Deoxycholate, 150 mM NaCl, 50 mM TrisHCl pH 7.5, 0.1% w/v SDS, 1% w/v NP-40) supplemented with protease and phosphatase inhibitors (Roche, #11836145001, #04906845001) by rotating gently at 4 °C for 1h, followed by a centrifugation step for 10 min (10,000 rpm, 4 °C). The supernatant was collected and concentrations of the obtained protein lysates were measured using the Pierce BCA Protein Assay Kit (Thermo Fisher Scientific, #23227).
(§8) Simple Western analyses were performed with the Wes instrument (Bio-Techne) using the 12–230 kDa Wes Separation module and the EZ standard pack reagent 1 (Biotechne, #SM-W001, #PS-ST01EZ-8) following the manufacturer’s protocol. Protein lysates were loaded at 0.8 μg/μL under denaturing conditions (0.2 μg/μL for MYCN detection). Chemiluminescence peaks were generated by the Compass Software (Bio-Techne) and the area under the peaks calculated using the Gaussian fit method. Per lane, quantified data were always normalized to that of the loading control (Vinculin) prior to calculating fold changes relative to the negative DMSO control. Mean fold changes are calculated from 3 individual experiments. A list of the primary and secondary antibodies used can be found in the Supporting Information (Supplementary Table S7).
as §6

IMR-32 = assay: IncuCyte live-cell imaging, antiproliferative effect; format: cell-based; conditions: Homo sapiens, IMR-32, 72 h; read-out: GI50
Text: as §1, §2, §3

AURKA [4] = target: T2, AURKA; assay: AURKA binding assay (KINOMEscan / KdELECT, Eurofins Discovery); set-up: purchased Eurofins Discovery
Method: as §5, §6

MYCN = MYCN protein levels, Simple Western; format: cell-based, human; conditions: IMR-32
Method: as §7, §8, §6

T1 sequence (Q96SW2 whole entry): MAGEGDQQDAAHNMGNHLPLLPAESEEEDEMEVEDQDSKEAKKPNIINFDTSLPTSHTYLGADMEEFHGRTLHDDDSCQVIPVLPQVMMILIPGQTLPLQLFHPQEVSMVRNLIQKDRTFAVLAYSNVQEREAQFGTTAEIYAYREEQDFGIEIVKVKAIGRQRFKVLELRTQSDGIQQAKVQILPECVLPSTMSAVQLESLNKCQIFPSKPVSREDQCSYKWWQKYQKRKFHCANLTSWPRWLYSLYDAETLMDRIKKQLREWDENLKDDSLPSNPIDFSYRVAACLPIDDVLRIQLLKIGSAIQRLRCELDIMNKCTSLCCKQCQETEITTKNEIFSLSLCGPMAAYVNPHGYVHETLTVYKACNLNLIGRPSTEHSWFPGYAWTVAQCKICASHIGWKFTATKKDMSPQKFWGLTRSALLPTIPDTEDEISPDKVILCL

O=C1CCC(Nc2ccc(N3CCN(C4CN(C(=O)[C@]5(Cc6cccc(Nc7nccs7)n6)CC[C@@H](Oc6cccc(Cl)c6F)CC5)C4)CC3)nc2)C(=O)N1 (some centres unmarked) [PROTAC 20]
GI50 (NGP; read-out: GI50 72h, 72h): 19 nM
GI50 (NGP; read-out: pGI50 (converted)): 19.1 nM
microsomal CLint at 0.1 μM [1]: 738 µL/min/mg
hepatocyte CLint at 1 μM [2]: < 4.1 µL/min/1e6 cells
Ki (CRBN): 3180 nM
half-life at 1 μM (Plasma stability assay; CD-1 mouse plasma, 1 μM, 37 °C): > 2 h
plasma t1/2 (Plasma stability assay; plasma): > 2 h
AURKA Degradation 24h @100nM (AURKA [3]): 90
AURKA Degradation 24h @1000nM (AURKA [3]): 90
pDC50 (AURKA [3]): 8,76
Dmax (AURKA [3]; NGP, 24 h treatment): 94%
DC50 (AURKA [3]; NGP, 24 h treatment): 2 nM
DC50 (AURKA [3]): 1.7 nM

O=C1CCN(Cc2ccc(C3CCN(CC4CCN(C(=O)[C@]5(Cc6cccc(Nc7nccs7)n6)CC[C@@H](Oc6cccc(Cl)c6F)CC5)CC4)CC3)nc2)C(=O)N1 [PROTAC 21]
GI50 (NGP; read-out: GI50 72h, 72h): 46 nM
GI50 (NGP; read-out: pGI50 (converted)): 45.7 nM
microsomal CLint at 0.1 μM [1]: 186 µL/min/mg
hepatocyte CLint at 1 μM [2]: < 4.1 µL/min/1e6 cells
Ki (CRBN): 455 nM
half-life at 1 μM (Plasma stability assay; CD-1 mouse plasma, 1 μM, 37 °C): > 2 h
plasma t1/2 (Plasma stability assay; plasma): > 2 h
AURKA Degradation 24h @100nM (AURKA [3]): 78
AURKA Degradation 24h @1000nM (AURKA [3]): 82
pDC50 (AURKA [3]): 7,97
AURKA degradation activity (in words) (AURKA [3]; NGP, 24 h treatment): slightly reduced degradation potency compared to SK2188
Dmax (AURKA [3]; NGP, 24 h treatment): 85%
DC50 (AURKA [3]): 10.8 nM

O=C1CCN(c2ccc(N3CCN(CC4CCN(C(=O)[C@]5(Cc6cccc(Nc7nccs7)n6)CC[C@@H](Oc6cccc(Cl)c6F)CC5)C4)CC3)nc2)C(=O)N1 (some centres unmarked) [PROTAC 25]
GI50 (NGP; read-out: GI50 72h, 72h): 33 nM
GI50 (NGP; read-out: pGI50 (converted)): 32.4 nM
microsomal CLint at 0.1 μM [1]: 426 µL/min/mg
hepatocyte CLint at 1 μM [2]: 13.6 µL/min/1e6 cells
half-life at 1 μM (Plasma stability assay; CD-1, mouse, plasma): > 2 h
AURKA Degradation 24h @100nM (AURKA [3]): 90
AURKA Degradation 24h @1000nM (AURKA [3]): 87
pDC50 (AURKA [3]): 8,47
DC50 (AURKA [3]): 3.4 nM

O=C1CCN(c2ccc(C3CCN(C4CN(C(=O)[C@]5(Cc6cccc(Nc7nccs7)n6)CC[C@@H](Oc6cccc(Cl)c6F)CC5)C4)CC3)nc2)C(=O)N1 [PROTAC 28]
GI50 (NGP; read-out: GI50 72h, 72h): 48 nM
GI50 (NGP; read-out: pGI50 (converted)): 47.9 nM
microsomal CLint at 0.1 μM [1]: 367 µL/min/mg
hepatocyte CLint at 1 μM [2]: 13 µL/min/1e6 cells
half-life at 1 μM (Plasma stability assay; CD-1, mouse, plasma): > 2 h
AURKA Degradation 24h @100nM (AURKA [3]): 80
AURKA Degradation 24h @1000nM (AURKA [3]): 78
pDC50 (AURKA [3]): 8,52
DC50 (AURKA [3]): 3 nM

Cc1cc(Nc2ccc(F)c(CC3(C(=O)N4CCC(F)(CN5CCC(c6ccc(N7CCC(=O)NC7=O)cn6)CC5)CC4)CCN(Cc4cccc(Cl)c4F)CC3)n2)n[nH]1 [PROTAC 37]
GI50 (NGP; read-out: GI50 72h, 72h): 45 nM
GI50 (NGP; read-out: pGI50 (converted)): 44.7 nM
microsomal CLint at 0.1 μM [1]: 617 µL/min/mg
hepatocyte CLint at 1 μM [2]: 4.5 µL/min/1e6 cells
half-life at 1 μM (Plasma stability assay; CD-1, mouse, plasma): > 2 h
AURKA Degradation 24h @100nM (AURKA [3]): 84
AURKA Degradation 24h @1000nM (AURKA [3]): 86

Cc1cc(N(C)c2ccc(F)c(CC3(C(=O)N4CCC(F)(CN5CCN(c6ccc(N7CCC(=O)NC7=O)cn6)CC5)CC4)CCN(Cc4cccc(Cl)c4F)CC3)n2)n[nH]1 [SK5527-AURi]
GI50 (IMR-32): ~9000 nM
AURKA binding (in words) (AURKA [4]): inability to bind
MYCN destabilization (in words) (MYCN): failed to destabilize MYCN
AURKA degradation (in words) (AURKA [3]): failed to degrade AURKA

Cc1cc(Nc2ccc(F)c(CC3(C(=O)N4CCC(F)(CN5CCN(c6ccc(N7CCC(=O)N(C)C7=O)cn6)CC5)CC4)CCN(Cc4cccc(Cl)c4F)CC3)n2)n[nH]1 [SK5527-CRBi]
GI50 (IMR-32): ~500 nM
MYCN destabilization (in words) (MYCN): failed to destabilize MYCN
CRBN binding (in words) (CRBN): inability to bind
AURKA degradation (in words) (AURKA [3]): failed to degrade AURKA
